Source: the NIST ThermoML archive (doi:10.1021/je300742t)
± gives the expanded uncertainty stated by the source.

Details: 298.15 K, 101.33 kPa, Liquid; for viscosity: Capillary tube (Ostwald / Ubbelohde) method; for speed of sound: Sing-around technique in a fixed-path interferometer; for mass density: Vibrating tube method

Row | SMILES | viscosity | speed of sound | mass density
1 | NCCO [2-aminoethan-1-ol] | 18.74 ± 0.13 mPa·s | 1719.2 ± 1.7 m/s | 1011.98 ± 0.3 kg/m3
2 | CN1CCCC1=O [N-methylpyrrolidone] | 1.681 ± 0.013 mPa·s | 1545.2 ± 1.7 m/s | 1028.3 ± 0.31 kg/m3
